Laboratory results reported in article PMC11851430, “Workflow for E3 Ligase Ligand Validation for PROTAC Development” (ACS Chemical Biology, 2025).

What was measured:
Format in all cases: binding
[1] = target: T1, MAPK13A (Homo sapiens, UniProt O15264); assay: DSF assay; settings: 20 µM compound
T1 construct: purchased in-house DSF panel (SGC-style construct names; the trailing A/B is a construct suffix)
T1 sequence (O15264 1-365): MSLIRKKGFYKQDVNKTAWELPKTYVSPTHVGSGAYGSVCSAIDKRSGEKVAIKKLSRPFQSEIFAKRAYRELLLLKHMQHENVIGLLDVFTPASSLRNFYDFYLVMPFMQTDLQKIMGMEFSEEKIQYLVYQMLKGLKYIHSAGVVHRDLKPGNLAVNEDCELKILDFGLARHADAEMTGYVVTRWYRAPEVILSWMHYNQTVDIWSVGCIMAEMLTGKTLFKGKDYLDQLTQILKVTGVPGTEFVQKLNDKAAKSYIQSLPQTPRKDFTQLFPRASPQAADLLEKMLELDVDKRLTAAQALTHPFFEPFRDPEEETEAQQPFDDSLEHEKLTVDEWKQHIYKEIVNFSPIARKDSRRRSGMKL

[2] = target: T2, BRAFA (Homo sapiens, UniProt P15056); assay: DSF assay; settings: 20 µM compound
T2 construct: purchased in-house DSF panel (SGC-style construct names; the trailing A/B is a construct suffix)

[3] = target: T3, NEK1A (Homo sapiens, UniProt Q96PY6); assay: DSF assay; settings: 20 µM compound
T3 construct: purchased in-house DSF panel (SGC-style construct names; the trailing A/B is a construct suffix)
T3 sequence (Q96PY6 1-328): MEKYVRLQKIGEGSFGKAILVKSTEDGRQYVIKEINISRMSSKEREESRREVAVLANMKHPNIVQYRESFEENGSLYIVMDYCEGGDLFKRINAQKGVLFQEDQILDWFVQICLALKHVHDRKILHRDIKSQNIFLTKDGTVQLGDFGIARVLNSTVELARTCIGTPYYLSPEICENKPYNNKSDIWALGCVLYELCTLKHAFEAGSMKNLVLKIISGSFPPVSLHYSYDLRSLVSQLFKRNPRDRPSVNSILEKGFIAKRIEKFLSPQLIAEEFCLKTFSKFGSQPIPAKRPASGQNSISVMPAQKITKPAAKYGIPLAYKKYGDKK

[4] = target: T4, GSG2A (Homo sapiens, UniProt Q8TF76); assay: DSF assay; settings: 20 µM compound
T4 construct: purchased in-house DSF panel (SGC-style construct names; the trailing A/B is a construct suffix)
T4 sequence (Q8TF76 465-798): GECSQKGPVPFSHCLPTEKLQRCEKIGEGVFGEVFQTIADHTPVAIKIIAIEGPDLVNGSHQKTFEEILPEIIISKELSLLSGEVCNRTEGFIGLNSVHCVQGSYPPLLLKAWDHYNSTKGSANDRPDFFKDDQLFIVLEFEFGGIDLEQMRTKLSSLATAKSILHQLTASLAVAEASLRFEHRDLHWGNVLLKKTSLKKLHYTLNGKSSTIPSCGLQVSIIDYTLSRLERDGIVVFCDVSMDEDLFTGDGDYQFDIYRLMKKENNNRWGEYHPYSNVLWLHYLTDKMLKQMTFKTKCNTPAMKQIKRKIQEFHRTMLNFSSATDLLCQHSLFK

[5] = target: T5, MAP3K5A (Homo sapiens, UniProt Q99683); assay: DSF assay; settings: 20 µM compound
T5 construct: purchased in-house DSF panel (SGC-style construct names; the trailing A/B is a construct suffix)

[6] = target: T6, AAK1A (Homo sapiens, UniProt Q2M2I8); assay: DSF assay; settings: 20 µM compound
T6 construct: purchased in-house DSF panel (SGC-style construct names; the trailing A/B is a construct suffix)

[7] = target: T7, MELKA (Homo sapiens, UniProt Q14680); assay: DSF assay; settings: 20 µM compound
T7 construct: purchased in-house DSF panel (SGC-style construct names; the trailing A/B is a construct suffix)

[8] = target: T8, AAK1 (Homo sapiens, UniProt Q2M2I8); assay: Kinobeads selectivity profiling; settings: Jurkat lysate, dose series given in nM; for Kd: read-out: Kd (apparent dissociation constant, corrected for protein depletion)
T8 construct: endogenous in cells; host or cells: Jurkat (Clone E6.1) cell lysate
Procedure: Excitation and emission filters […]
curve. […] Measurements were
Kinobeads selectivity profiling of PROTACs
(Multiplexion, Heidelberg, Germany).
The cell lysate was ultracentrifuged and diluted
NaF, 1 mM DTT, protease inhibitors and phosphatase inhibitors to a final concentration of 5 mg/ml as determined by Bradford assay. For selectivity profiling of compounds the cell lysate (2.5 mg of total proteins per pulldown) was pre-incubated with increasing compound […]
µM) for 45 min at 4 °C in an end-over-end shaker. Subsequently, lysates were incubated with Kinobeads epsilon (17 µL settled beads) for 30 min at 4 °C. To assess the degree of protein depletion from the lysates by Kinobeads, the flow-through of the DMSO control was recovered […]
for a pulldown of pulldown experiment where the lysate was incubated a second time with fresh Kinobeads. Beads were washed in 3 steps with buffer containing 0.4%, 0.2% and no NP40.
Bound proteins were reduced with 50 mM DTT in 8 M Urea, 40 mM Tris-HCl pH 7.4 for 30 min at room temperature. After alkylation with 55 mM chloroacetamide (CAA), the Urea concentration was reduced to 1 – 2 M and proteins were digested using trypsin. Acidified peptides were desalted and concentrated using SepPak tC18 µEluation plates (Waters).
Samples were frozen, dried by vacuum centrifugation and stored at -20 °C.
LC-MS2 analysis. Peptides were measured on a Dionex Ultimate3000 nano HPLC coupled online to an Orbitrap Fusion Lumos (Thermo Fisher Scientific) mass spectrometer.
Peptides were dissolved in 0.1% formic acid and delivered to a trap column (ReproSil-pur C18-AQ, 5 μm, Dr. Maisch, 20 mm × 75 μm, self-packed) at a flow rate of 5 μL/min in LC solvent A (0.1 % formic acid).4 After 10 min of loading, peptides were transferred to an analytical column (ReproSil Gold C18-AQ, 3 μm, Dr. Maisch, 400 mm × 75 μm, self-packed) and separated using […]
acetonitrile) in LC solvent A.
The Orbitrap Fusion Lumos was operated as follows: positive polarity; spray voltage 2.1 kV, […]
A full-scan (MS1) was recorded from 360 to 1300 m/z with a resolution of 60,000 in the Orbitrap in profile mode. The MS1 AGC target was set to 4e5 and the maxIT was set to 50 ms, RF lens value was set to 50%. Based on the full scans, precursors were targeted for the MS/MS scans […]
intensity exceeded 2.5e4. The dynamic exclusion was set to 30 sec and exclude isotopes was switched on. The MS2 quadrupole isolation window was set to 1.7 m/z. Peptide fragmentation occurred in the ion routing multipole (IRM) by HCD with a fixed collision energy mode, the […]

[9] = target: T9, CHEK2A (Homo sapiens, UniProt O96017); assay: DSF assay; settings: 20 µM compound
T9 construct: purchased in-house DSF panel (SGC-style construct names; the trailing A/B is a construct suffix)

[10] = target: T10, RIOK2A (Homo sapiens, UniProt Q9BVS4); assay: DSF assay; settings: 20 µM compound
T10 construct: purchased in-house DSF panel (SGC-style construct names; the trailing A/B is a construct suffix)
T10 sequence (Q9BVS4 whole entry): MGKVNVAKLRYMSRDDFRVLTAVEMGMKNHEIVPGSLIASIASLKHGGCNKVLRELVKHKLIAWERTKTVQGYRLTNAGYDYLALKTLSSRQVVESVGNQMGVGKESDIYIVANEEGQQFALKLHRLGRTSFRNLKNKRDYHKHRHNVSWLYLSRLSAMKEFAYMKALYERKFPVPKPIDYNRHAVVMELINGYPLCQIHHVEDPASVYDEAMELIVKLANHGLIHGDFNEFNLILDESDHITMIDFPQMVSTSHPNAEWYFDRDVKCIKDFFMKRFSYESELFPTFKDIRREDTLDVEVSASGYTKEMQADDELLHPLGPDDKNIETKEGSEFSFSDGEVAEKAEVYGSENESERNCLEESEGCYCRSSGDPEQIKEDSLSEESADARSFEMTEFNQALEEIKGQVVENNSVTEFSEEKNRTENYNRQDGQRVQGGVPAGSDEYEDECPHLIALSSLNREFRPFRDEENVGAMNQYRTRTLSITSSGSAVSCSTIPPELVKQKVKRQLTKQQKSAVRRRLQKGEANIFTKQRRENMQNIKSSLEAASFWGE

T7 sequence (Q14680 1-340): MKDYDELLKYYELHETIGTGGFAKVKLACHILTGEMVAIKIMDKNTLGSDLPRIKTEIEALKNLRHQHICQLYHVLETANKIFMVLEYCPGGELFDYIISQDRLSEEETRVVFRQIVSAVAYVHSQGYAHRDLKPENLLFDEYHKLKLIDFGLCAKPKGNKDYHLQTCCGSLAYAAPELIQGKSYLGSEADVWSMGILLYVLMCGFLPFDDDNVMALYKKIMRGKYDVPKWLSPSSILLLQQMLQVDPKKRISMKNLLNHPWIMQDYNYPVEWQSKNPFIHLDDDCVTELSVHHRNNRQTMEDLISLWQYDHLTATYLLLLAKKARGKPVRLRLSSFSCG
T5 sequence (Q99683 659-951): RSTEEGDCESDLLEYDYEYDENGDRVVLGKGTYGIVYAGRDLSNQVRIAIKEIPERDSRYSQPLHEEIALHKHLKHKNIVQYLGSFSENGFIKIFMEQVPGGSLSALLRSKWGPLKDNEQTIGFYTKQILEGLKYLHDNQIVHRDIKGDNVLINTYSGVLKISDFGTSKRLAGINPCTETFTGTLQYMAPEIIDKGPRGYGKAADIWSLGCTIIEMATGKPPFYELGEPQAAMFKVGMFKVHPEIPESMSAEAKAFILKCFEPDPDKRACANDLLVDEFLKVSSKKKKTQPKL
T9 sequence (O96017 210-531): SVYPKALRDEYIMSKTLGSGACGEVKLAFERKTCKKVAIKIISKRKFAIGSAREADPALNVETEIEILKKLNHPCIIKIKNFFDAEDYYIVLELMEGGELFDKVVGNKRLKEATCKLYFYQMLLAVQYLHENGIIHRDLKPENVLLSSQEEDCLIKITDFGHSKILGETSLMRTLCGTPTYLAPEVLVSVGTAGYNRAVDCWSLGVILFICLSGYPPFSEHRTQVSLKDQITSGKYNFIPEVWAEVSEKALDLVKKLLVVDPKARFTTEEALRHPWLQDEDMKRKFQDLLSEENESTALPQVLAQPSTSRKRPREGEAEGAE
T6 sequence (Q2M2I8 27-365): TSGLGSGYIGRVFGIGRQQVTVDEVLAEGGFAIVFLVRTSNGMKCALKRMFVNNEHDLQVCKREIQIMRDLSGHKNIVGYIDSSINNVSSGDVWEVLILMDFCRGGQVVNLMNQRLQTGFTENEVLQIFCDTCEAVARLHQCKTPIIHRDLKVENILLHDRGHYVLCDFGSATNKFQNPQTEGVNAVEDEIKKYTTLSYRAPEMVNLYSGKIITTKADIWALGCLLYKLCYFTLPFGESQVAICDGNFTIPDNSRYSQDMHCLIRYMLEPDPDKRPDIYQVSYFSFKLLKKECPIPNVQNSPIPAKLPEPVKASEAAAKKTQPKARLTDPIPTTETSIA
T8 sequence (Q2M2I8 whole entry): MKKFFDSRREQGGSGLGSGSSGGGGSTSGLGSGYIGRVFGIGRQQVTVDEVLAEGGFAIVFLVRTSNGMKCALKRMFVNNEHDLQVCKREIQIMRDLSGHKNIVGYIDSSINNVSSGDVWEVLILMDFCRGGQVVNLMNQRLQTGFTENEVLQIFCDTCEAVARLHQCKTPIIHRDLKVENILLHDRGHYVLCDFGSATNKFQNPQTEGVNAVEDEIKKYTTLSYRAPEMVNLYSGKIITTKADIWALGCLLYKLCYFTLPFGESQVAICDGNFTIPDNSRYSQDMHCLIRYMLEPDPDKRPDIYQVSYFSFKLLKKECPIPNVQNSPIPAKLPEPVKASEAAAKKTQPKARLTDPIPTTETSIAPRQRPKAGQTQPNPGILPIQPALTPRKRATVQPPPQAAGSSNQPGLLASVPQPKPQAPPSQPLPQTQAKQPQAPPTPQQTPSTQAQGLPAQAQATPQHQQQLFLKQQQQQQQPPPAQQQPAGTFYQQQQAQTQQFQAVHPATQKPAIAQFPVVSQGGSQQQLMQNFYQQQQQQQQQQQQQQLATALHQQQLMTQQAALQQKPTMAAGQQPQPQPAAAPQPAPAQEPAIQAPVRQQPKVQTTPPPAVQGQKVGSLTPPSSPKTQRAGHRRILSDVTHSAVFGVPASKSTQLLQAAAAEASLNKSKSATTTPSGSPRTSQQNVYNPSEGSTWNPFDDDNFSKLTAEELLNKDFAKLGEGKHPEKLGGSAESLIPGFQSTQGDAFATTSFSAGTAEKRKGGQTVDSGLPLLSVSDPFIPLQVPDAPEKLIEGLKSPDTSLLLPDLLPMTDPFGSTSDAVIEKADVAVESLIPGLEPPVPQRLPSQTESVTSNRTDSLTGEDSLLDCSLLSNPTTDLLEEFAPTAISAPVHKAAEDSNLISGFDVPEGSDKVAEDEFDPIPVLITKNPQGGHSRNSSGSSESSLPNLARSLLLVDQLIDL
T2 sequence (P15056 448-723): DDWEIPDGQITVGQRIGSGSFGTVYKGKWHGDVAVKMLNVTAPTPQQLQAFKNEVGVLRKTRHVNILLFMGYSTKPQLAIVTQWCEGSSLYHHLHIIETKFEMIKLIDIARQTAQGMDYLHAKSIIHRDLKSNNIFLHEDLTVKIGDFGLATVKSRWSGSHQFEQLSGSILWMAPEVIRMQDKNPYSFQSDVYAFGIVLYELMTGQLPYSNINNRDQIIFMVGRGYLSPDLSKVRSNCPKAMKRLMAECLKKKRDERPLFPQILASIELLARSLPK

Compound | ΔTm at 20 µM [1] [°C] | ΔTm at 20 µM [2] [°C] | ΔTm at 20 µM [3] [°C] | ΔTm at 20 µM [4] [°C] | ΔTm at 20 µM [5] [°C] | ΔTm at 20 µM [6] [°C] | ΔTm at 20 µM [7] [°C] | Kd (apparent dissociation constant, corrected for protein depletion) [8] | ΔTm at 20 µM [9] [°C] | ΔTm at 20 µM [10] [°C] | Kd [8] [nM]
CCOC(=O)c1cc(Nc2cc(C3CC3)[nH]n2)nc(Nc2ccc(CC#N)cc2)n1 [compound 5] | 3.76 | 1.72 | 0.62 | 2.54 | 6.97 | 10.1 | 9.78 | 62.7409 | 4.17 | 6.53 | –
CC(C)(C)OC(=O)NCCCOCCOCCOCCCNC(=O)c1cc(Nc2cc(C3CC3)[nH]n2)nc(Nc2ccc(CC#N)cc2)n1 [5-L] | 3.98 | 2.09 | 0.017 | 1.49 | 8.95 | 12.1 | 8.44 | – | 5.41 | 5.03 | 35.5
CC(C)(C)OC(=O)NCCOCCOCCOCCOCCC(=O)N1CCN(c2cc(Nc3cc(C4CC4)[nH]n3)nc(Nc3ccc(CC#N)cc3)n2)CC1 [4-L] | 3.4 | 1.63 | 0.45 | 1.36 | 8.63 | 13.2 | 10.1 | – | 6.36 | 6.13 | 6.67
